Test results from patent US10329316B2, “Phenylpropanoid compound and preparation method and use thereof” (QIANJIN PHARMACEUTICAL CO., LTD., priority 2016, dated 2019).
Entries after “also recorded” stand apart in the source; their conditions may differ.

What was measured:
[1] = system: TNF-α; assay: Measurement of inflammatory factor TNF-α in LPS-stimulated Raw 264.7 cells (ELISA kit); format: cell-based, mouse; settings: 6.88±12.38 μg/ml (6.88 to 12.38 μg/mL), LPS 30 μg/ml 24 h, p<0.05, dose-dependent, FIG. 3
Method: (§1) Mouse IL-1-beta ELISA kit, batch number: 2014/06 (96T), Mouse IL-6 ELISA kit, batch number: 2014/06 (96T), Mouse tumor necrosis factor-alpha (TNF-α) ELISA kit, batch number: 2014/06 (96T), Mouse NO ELISA Kit Batch number: 2014/10 (96T), mouse hydroxyl radical (OH) ELISA detection kit, batch number: 2014/10 (96T).
(§2) Raw 264.7 cells were inoculated on a 96-well plate for 24 hours, then synchronized for 24 hours. The cells were treated with different concentration of medicine for 2 hours, and then stimulated with LPS (30 μg/ml) for 24 hours. Lastly, supernatant was collected and centrifuged for 5 minutes at 10,000 rpm. The supernatant was separated and stored at −80° C. for reserve. The concentration of NO was determined by mouse NO kit.
(§3) Sample prepared in at 1.5 was used for subsequent inflammatory factor determination. The amount of TNF-α, IL-1β, IL-6 produced by cells was measured by mouse TNF-α, IL-1β, and IL-6 kit.

[2] = system: IL-6; assay: Measurement of inflammatory factor IL-6 in LPS-stimulated Raw 264.7 cells (ELISA kit); format: cell-based, mouse; settings: at various concentrations; LPS 30 μg/ml 24 h; p>0.05; FIG. 5
Method: as §1, §2, §3

[3] = system: Raw 264.7 cells; assay: Determination of cell vitality by MTT method; format: cell-based, mouse; settings: 1.37 to 12.37 μg/ml, 2 h medicine, then LPS 30 μg/ml 24 h, FIG. 1
Method: (§4) Medicine was first dissolved in a small amount of DMSO, and then diluted to a certain concentration with DMEM, so that final concentration of DMSO was less than 1%.
(§5) Raw 264.7 mouse macrophages were incubated in DMEM medium containing 10% heat-inactivated fetal bovine serum (FBS), 10 U/mL penicillin sodium and 100 μg/ml streptomycin, and incubated in 37° C., 5% CO2 incubator.
Cell vitality was determined by MTT method. Cell suspension liquid was inoculated into a 96-well plate (1*104 holes/pore) to incubate for 24 hours and then synchronize for 24 hours. The cells were treated with different concentration of medicine for 2 hours, and then stimulated by LPS (30 μg/ml) for 24 hours. Original medium was abandoned, and MTT (0.5 mg/ml) was added into each hole for 4 hours. The medium was then abandoned and DMSO ([…]) was added into each hole. Absorbance was measured at 490 nm after shaking for 10 min.

[4] = system: IL-1β; assay: Measurement of inflammatory factor IL-1β in LPS-stimulated Raw 264.7 cells (ELISA kit); format: cell-based, mouse; settings: at various concentrations; LPS 30 μg/ml 24 h; p>0.05; FIG. 4
Method: as §1, §2, §3

[5] = system: NO; assay: Determination of NO concentration in LPS-stimulated Raw 264.7 cells (mouse NO kit); format: cell-based; settings: 6.88±12.38 μg/ml (6.88 to 12.38 μg/mL), LPS 30 μg/ml 24 h, dose-dependent
Method: as §4, §5, §2

[6] = system: hydroxyl radical (OH); assay: Determination of OH concentration in LPS-stimulated Raw 264.7 cells (OH kit); format: cell-based, mouse; settings: 4.13-12.38 μg/ml, LPS 30 μg/ml 24 h, dose-dependent
Method: as §1, §2
Sample prepared at 1.5 was used for OH factor determination. The concentration was determined by OH kit.

effect on vitality of Raw 264.7 cells [3]: no significant effect
Structure (SMILES): O=C(CCO)Oc1cc(O)c(OC2OC(CO)C(O)C(O)C2O)c(O)c1 (stereo not drawn) [MM-125]
inhibition of production of TNF-α in Raw 264.7 cells [1]: significantly inhibit; also recorded: certain level of inhibiting effects
inhibition of production of TNF-α in Raw 264.7 cells ([1]; listed as phenylpropanoid compound): significantly inhibit
inhibition of production of IL-6 in Raw 264.7 cells [2]: could not inhibit; also recorded: no obvious inhibitory effect
inhibition of production of IL-1β in Raw 264.7 cells [4]: could not inhibit; also recorded: no obvious inhibitory effect
inhibition of the increase of NO concentration induced by LPS ([5]; FIG. 2): significantly inhibit; also recorded: significant inhibitory effects
inhibition of the increase of NO concentration induced by LPS ([5]; FIG. 2, listed as phenylpropanoid compound): significant effect on inhibiting
inhibition of the increase of OH concentration induced by LPS ([6]; FIG. 6): significantly inhibit; also recorded: significant inhibitory effects
inhibition of the increase of OH concentration induced by LPS ([6]; FIG. 6, listed as phenylpropanoid compound): significant effect on inhibiting
